Key:
[1] = In vitro percutaneous passage on static diffusion cells (Franz cells), radiolabelled active ingredients; type: in vitro ADME, human; conditions: 24 hours
Experimental: Percutaneous absorption is studied in vitro on static diffusion cells, called Franz cells™. The percutaneous passage of the active ingredients is evaluated by measuring the radioactivity using labelled molecules (carbon 14, tritium). The overall quantity of active ingredient absorbed is measured, at different times, in the receiving compartment.
A cutaneous biopsy is horizontally maintained between the two parts of the cell thus delimiting on both sides of the sample, two compartments: one of them epidermic, constituted by a glass cylinder, of a defined area (1.76 cm^2), placed on the upper surface of the skin; the other dermic (or receptor), on the underside of the biopsy, comprises a fixed volume reservoir with a side nozzle. The two compartments are kept in place through the intermediary of a clamp. […]
The preparations to be studied are applied in weighed quantities, using a spatula over all of the epidermal area circumscribed by the glass cone. […] The samples removed are treated with Pico-fluorine 40™ scintillation liquid and the activity measured using a liquid scintillation counter. […]
The percutaneous passage of the active ingredients is evaluated at the time of each sampling by measuring the cumulative quantity (μg) of active ingredient as a function of time.

[2] = known pharmacokinetics; Patent FR 2.776.191; cited from earlier work

change of percutaneous penetration of estradiol caused by presence of nomegestrol acetate ([1]; gel G29-299 (NAc + E2) versus TX11323 (E2 only)) [%]	change of percutaneous passage of nomegestrol acetate caused by presence of estradiol ([1]; gel G29-299 (NAc + E2) versus G29-287 (NAc only))	SMILES	plasmatic concentration of nomegestrol acetate for clinical effectiveness (endometrial effect through bleedings) [2] [ng/mL]
−51	–	C[C@]12CC[C@@H]3c4ccc(O)cc4CC[C@H]3[C@@H]1CC[C@@H]2O [estradiol, 17beta estradiol]	–
–	+39%	CC(=O)O[C@]1(C(C)=O)CC[C@H]2[C@@H]3C=C(C)C4=CC(=O)CC[C@@H]4[C@H]3CC[C@@]21C [nomegestrol acetate]	≥ 0.7
